According to patent US8088401B2, “Composite material comprising a porous semiconductor impregnated with an organic substance” (Psimedica Limited, priority 2003, dated 2012):
Structures can show the parent of a compound that is named as a salt.

Legend:
[1] = Gravimetric loading of porous silicon p+ membrane with beneficial organic substance; assay type: physicochemical; conditions: for w/w loading (weight gain after drug loading and washing) / pore volume available occupied by the drug, given as value/drug density: mesoporous p+ silicon membrane, porosity 63%; for w/w loading (weight gain after drug loading and washing): melt, heated solution or rotary evaporation loading; for maximum w/w loading capacity: 63% porosity silicon matrix, from the density; for pore volume available occupied by the drug: liquid applied directly, 70° C. for 20 minutes
Description: The porous membranes were prepared and loaded with beneficial substance according to the following general method:—
A 3 inch diameter p+ wafer (5-15 milli ohm cm) was made mesoporous in a 50:50 by volume mixture of 40 wt % HF and ethanol by anodisation at 35 mA/cm^2 for 90 minutes. […] The membrane was then broken into flakes of weight in the range 10-60 mg for gravimetric and EDX studies of beneficial substance incorporation.
Loading was performed on two similar porous silicon (p+) membranes.
The pore volume available in the porous silicon membrane that can be occupied by the drug is calculated as follows: […]

[2] = aqueous environment; cited from earlier work
[3] = Mortality and survival of tumour-bearing nude mice in the chlorambucil study; assay type: in vivo; conditions: for mortality rate: without porous silicon
Description: The following protocol was adopted:— • 1. Culture of human cells and implantation of the tumour cells as solid tumours in nude mice: The carcinoma cell-line was cultured in RPMI and Ham's F-12 media respectively with 10% fetal calf serum in a CO2 incubator and subcultured every two to three days until growing to a number enough for implantation in animals. The cells were then implanted as solid tumors in nude mice]. The cells were collected in HBSS (balanced salt solution). One hundred microliters of cell suspension in HBSS (5×10^6 cells) was injected subcutaneously into right gluteal region of nude mice (female, 6 to 9 week old nude mice with average body weight of 25 g, housed in pathogen-free conditions) using a 25-gauge needle. • 2. Animals groups: Animals were randomly grouped into control 1 (injected with peanut oil), control 2 (injected with porous silicon without drug), free chlorambucil (drug injected without porous silicon directly into tumour or injected via intraperitoneal route) and chlorambucil impregnated porous silicon groups. Each group included 16 to 20 animals. • 3. Injection of chlorambucil impregnated porous silicon in transplanted tumours: On day 14 after implantation of tumours (diameter of the tumour about 1 cm), the chlorambucil impregnated formulation was applied to the centre of the tumours. • 4. Tumour volumetrics: The sizes of implanted tumours in nude mice was estimated every 3 days. The largest and smallest diameters were measured by a vernier caliper and tumour volumes estimated according the formula: V=1/2 ab^2, where a and b are largest and smallest tumour diameters respectively, and V is the tumour volume in cm^3.
The effects of intra-tumoural administered chlorambucil loaded porous silicon on the growth of the tumour was studied and compared with control and systemic therapy groups. The body weight of the animals was estimated by subtracting the tumour volume (cm3) from the total body weight (g) every 3 days. The survival time of each experimental animal was recorded.

[4] = HPLC analysis of drug extracted after incorporation into porous silicon; assay type: physicochemical
Description: Following incorporation into the membrane, chlorambucil was extracted and subjected to HPLC analysis. A known amount of the incorporated Chlorambucil/porous silicon (typically 10-15 mg, dependent on the level of incorporation) was placed into a volumetric flask and made up to a volume with 100 ml of ethanol, shaken and sonicated for 30 minutes at 30° C. From this stock solution 25 ml were transferred by pipette to a 100 ml volumetric flask to give the sample solution. Prior to analysis by HPLC the sample was filter through a 0.45 micron filter.
The chromatographic conditions used for this analysis were:—

[5] = 55% porous silicon, thin oxidised layers; cited from earlier work

Compound | w/w loading (weight gain after drug loading and washing) [1] [% w/w] | pore volume available occupied by the drug, given as value/drug density [1] | other results
CC(C)Cc1ccc(C(C)C(=O)O)cc1 (stereo not drawn) [S-(+)-Ibuprofen] | 40.67 | – | –
O=P1(N(CCCl)CCCl)NCCCO1 (centres unmarked) [Cyclophosohamide] | 44.4 | 104 /drug density % | –
CCCCCCCCCCCC(=O)O [Lauric Acid] | 42.57 | 55.62 /drug density % | –
Vitamin K | 36 | – | maximum w/w loading capacity [1]: 42%; pore volume available occupied by the drug [1]: 80%
CS(=O)(=O)OCCCCOS(C)(=O)=O [Busulfan] | 37.54 | 78.53 /drug density % | –
c1ccc([C@H]2CN3CCSC3=N2)cc1 [Levamisole HCl] | 32.93 | 64 /drug density % | –
CN(C)CCC=C1c2ccccc2CCc2ccccc21 [Amitriptyline HCl] | 35.07 | 74.07 /drug density % | –
O=C(O)CCCc1ccc(N(CCCl)CCCl)cc1 [Chlorambucil] | 39.19 | 88.40 /drug density % | apparent activation energy for thermal degradation (Ea) [2]: 24.4 kcal/mol; mortality rate ([3]; 720 ug): 50%; mortality rate ([3]; 1500 ug (2×LD50), intratumour): 90%; LD50 ([3]; nude mice, dose per animal): 720 µg; degradation after incorporation into and release from porous silicon (HPLC) [4]: without significant degradation
CC(=O)O[C@H]1C(=O)[C@@]2(C)[C@H]([C@H](OC(=O)c3ccccc3)[C@]3(O)C[C@H](OC(=O)[C@H](O)[C@@H](NC(=O)c4ccccc4)c4ccccc4)C(C)=C1C3(C)C)[C@]1(OC(C)=O)CO[C@@H]1C[C@@H]2O [Paclitaxel] | 16.71 | – | degradation after incorporation into and release from porous silicon (HPLC) [4]: without significant degradation
Cc1c(C)c2c(c(C)c1O)CC[C@@](C)(CCC[C@H](C)CCC[C@H](C)CCCC(C)C)O2 [Vitamin E, α-tocopherol] | 37 | – | maximum w/w loading capacity [1]: 41%; pore volume available occupied by the drug [1]: 88%
CCN(CC)CCOC(=O)c1ccc(N)cc1 [Procaine] | 35.33 | – | loading w/v ([1]; EtOH:dH2O 1:1 solution, 110° C., 25 minutes): 71.38 % w/v
albumin | – | – | volume percentage adsorbed [5]: 10.7%
CC(=O)O[C@]1(C(C)=O)CC[C@H]2[C@@H]3C[C@H](C)C4=CC(=O)CC[C@]4(C)[C@H]3CC[C@@]21C [Medroxyprogesteron Acetate] | 19.81 | – | –
CC1=CC(=O)c2c(O)cccc2C1=O [Plumbagin] | 34.68 | 98.50 /drug density % | –
